Measurements published in ChEMBL document CHEMBL1201862, “PubChem BioAssay data set” (2004).
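Cultured in 96-well plates, cells were exposed to test compound for 48 hours across five concentrations. Here, GI50 denotes the concentration required for 50% inhibition of growth.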 Calls of active or inactive are those of the source. Cut-off read from the data, not from the text of the source: active = GI50 up to about 1.1 µM and inactive = higher.

Columns and labels:
Assay in all cases: NCI-60 cell line screen, 48 h
RXF 393 = tested on: RXF 393
U-251 = tested on: U-251
T47D = tested on: T47D
SK-MEL-28 = tested on: SK-MEL-28
K562 = tested on: K562
MDA-MB-435 = tested on: MDA-MB-435
COLO 205 = tested on: COLO 205
HOP-62 = tested on: HOP-62
HL-60 = tested on: HL-60
MCF7 = tested on: MCF7
HCT-116 = tested on: HCT-116
MOLT-4 = tested on: MOLT-4
SK-OV-3 = tested on: SK-OV-3
SN12C = tested on: SN12C
A498 = tested on: A498
SF-295 = tested on: SF-295
OVCAR-3 = tested on: OVCAR-3
Hs-578T = tested on: Hs-578T

Measured: GI50

c1ccc(CCN2CCc3[nH]c4ccccc4c3C2)cc1
inactive: RXF 393 17.5 µM | U-251 18 µM | T47D 20.1 µM | SK-MEL-28 20 µM | K562 16.9 µM | MDA-MB-435 17.4 µM | COLO 205 > 10 µM | HOP-62 19.5 µM | HL-60 19 µM | MCF7 18.8 µM | HCT-116 14.5 µM | MOLT-4 26.5 µM | SK-OV-3 35.8 µM | SN12C 27.9 µM | A498 13.9 µM | SF-295 15.1 µM

O=C1[C@@H](c2ccc(Cl)cc2)[C@H]2CC=C[C@H]2N1O
inactive: RXF 393 14.3 µM | SK-MEL-28 > 100 µM | K562 > 100 µM | OVCAR-3 > 100 µM | COLO 205 > 100 µM | HOP-62 > 100 µM | HL-60 > 100 µM | MOLT-4 66.1 µM | SK-OV-3 > 100 µM | SN12C > 100 µM | SF-295 > 100 µM

O=[N+]([O-])c1ccccc1[S+]([O-])c1ccccc1 (configuration not stated)
inactive: RXF 393 84.1 µM | U-251 41.2 µM | SK-MEL-28 > 100 µM | K562 35.1 µM | OVCAR-3 73.8 µM | HOP-62 > 100 µM | HL-60 27.7 µM | HCT-116 57.9 µM | MOLT-4 57 µM | SK-OV-3 > 100 µM | SN12C 75.5 µM | A498 63.2 µM | SF-295 90.8 µM

CC1(C)O[C@H]2[C@H](O)C[C@](O)(CO)C[C@H]2O1
inactive: RXF 393 > 100 µM | U-251 > 100 µM | SK-MEL-28 > 100 µM | K562 > 100 µM | OVCAR-3 > 100 µM | COLO 205 > 100 µM | HCT-116 > 100 µM | MOLT-4 > 100 µM | SK-OV-3 > 100 µM | SN12C > 100 µM | SF-295 > 100 µM

COC(=O)c1cc2c(nc1C)-c1ccccc1OS2(=O)=O
inactive: RXF 393 32.6 µM | U-251 70.1 µM | K562 > 100 µM | OVCAR-3 > 100 µM | COLO 205 > 100 µM | HOP-62 27.5 µM | HL-60 > 100 µM | HCT-116 > 100 µM | MOLT-4 > 100 µM | SK-OV-3 > 100 µM | SN12C > 100 µM | A498 > 100 µM | SF-295 43.1 µM

Cc1ccc(/N=C2\SC(=NN(C)C)S\C2=N/c2ccc(C)cc2)cc1
inactive: RXF 393 > 100 µM | U-251 > 100 µM | T47D > 100 µM | SK-MEL-28 > 100 µM | K562 > 100 µM | MDA-MB-435 > 100 µM | Hs-578T > 100 µM | COLO 205 > 100 µM | HOP-62 > 100 µM | HL-60 > 100 µM | HCT-116 > 100 µM | MOLT-4 > 100 µM | SK-OV-3 > 100 µM | SN12C > 100 µM | A498 > 100 µM | SF-295 > 100 µM

O=[N+]([O-])c1c(/C=N/c2ccccc2)oc(-c2ccc3c(c2)OCO3)c1-c1ccc2c(c1)OCO2
inactive: RXF 393 > 100 µM | U-251 > 100 µM | SK-MEL-28 > 100 µM | K562 > 100 µM | OVCAR-3 > 100 µM | COLO 205 > 100 µM | HOP-62 > 100 µM | HL-60 > 100 µM | HCT-116 > 100 µM | MOLT-4 > 100 µM | SK-OV-3 44.9 µM | SN12C > 100 µM | SF-295 > 100 µM

C[n+]1c(-c2ccc(/C=N\Nc3ccnc(N/N=C/c4ccc(-c5cn6ccsc6[n+]5C)cc4)n3)cc2)cn2ccsc21
inactive: RXF 393 18.3 µM | U-251 32.6 µM | K562 8.71 µM | MDA-MB-435 2.24 µM | Hs-578T 84.1 µM | OVCAR-3 > 100 µM | COLO 205 27.6 µM | HOP-62 18.1 µM | HL-60 24.2 µM | MCF7 34.8 µM | MOLT-4 24.2 µM | SK-OV-3 > 100 µM | SN12C 27.1 µM | A498 17.1 µM
